Test results reported in patent US20260232752A1, “COMBINATION THERAPY METHODS, COMPOSITIONS AND KITS” (Accure Therapeutics, S.L., priority 2019, published 2026).
Where a name gives a salt, the structure may show the parent alone.

Tests used:
[1] = test system: human neuroblastoma cell line SH-SY5Y; experiment: Neuroprotection against H2O2 oxidative stress, MTT assay; format: cell-based; conditions: 1 hour preincubation at 0.03-40 μM, then H2O2 15 μM 30 minutes
Experimental: The objective of the study was to test the possible synergistic effect of the BN201-monomethylfumarate salt in a neuroprotective assay. Thus, BN201-monomethylfumarate salt obtained as indicated in example 5, was tested for its ability to protect the human neuroblastoma cell line SH-SY5Y against death induced by oxidative stress (i.e., hydrogen peroxide (H202)) using an MTT (3-(4,5-dimethylthiazol-2-yl)-2,5-diphenyltetrazolium bromide) cell proliferation assay.
SH-SY5Y cells were cultivated in 50% Eagle's minimum essential medium (EMEM), 50% Ham's F12 Nutrient Mixture, 10% fetal bovine serum (FBS), 2 mM L-Glu, and 1% penicillin/streptomycin. All of the cell cultures were maintained in a humidified incubator at 5% CO2 and at 37° C. SH-SY5Y cells were preincubated for 1 hour with BN201 alone, monomethyl fumarate alone, or BN201-monomethylfumarate salt at various concentrations (n=5; concentrations: 0.03 μM, 0.1 μM, 0.3 μM, 0.5 μM, 1 μM, 3 μM, 5 μM, 10 μM, 20 μM, 40 μM) and then H2O2 (15 μM) was added to induce stress. Preincubation with sodium pyruvate (10 mM) was used as a positive control. After 30 minutes of H2O2 incubation, the medium was changed and thiazolyl blue tetrazolium bromide (MTT; Sigma Aldrich; stock concentration 10 mg/ml) was added to each well at the final concentration of 0.5 mg/ml. After 2 hours of MTT incubation the cell medium was removed, and cells were resuspended in pure dimethyl sulfoxide (DMSO). Cell viability was determined by reading the absorbance at 570 nm. Each experiment was performed in quintuplicate.

[2] = test system: rat model of experimental autoimmune encephalomyelitis (EAE); conditions: cited from earlier work
[3] = test system: non-obese diabetic mouse model of relapsing-remitting EAE; conditions: cited from earlier work
[4] = test system: EAE in C57BL6 mice immunized with MOG35-55; experiment: Example 4: BN201 and STAT3 inhibitor combination, chronic phase of EAE; format: in vivo, mouse; conditions: S31-201 5 mg/kg i.p. alone (optimal), from day 34 to day 54
Experimental: Effect during the chronic phase of the disease in the animal model of Multiple Sclerosis (i.e., EAE in C57BL6 mice immunized with MOG35-55)
Efficacy and safety of combination therapy with optimal doses of BN201 (50 mg/kg) and S31-201 (5 mg/kg) in the progression of chronic EAE in mice.
Starting the chronic phase of the disease (by day 34) mice were administered: • the STAT3 inhibitor S31-201 (group A, 7 mice), • BN201 (group B, 6 mice), or • a combination thereof (group C, 6 mice) once a day for six days per week at optimal dosages (5 mg/kg for S31-201, 50 mg/kg for BN201).
S31-201 and BN201 were administered via i.p. injection in a saline vehicle at a volume of 5 mL/kg. Control mice received vehicle only via both oral and i.p. injection (group D, 6 mice) or nothing at all (group E, 2 mice). Mice were treated from day 34 (chronic EAE stage) until the end of the experiment on day 54.
The combination of BN201 and the STAT3-inhibitor S31-201 was evaluated for its effect during the chronic phase of the disease in the animal model of Multiple Sclerosis (i.e., EAE in C57BL6 mice immunized with MOG35-55). The objective of the study was to evaluate the efficacy and safety of combination therapy with optimal doses of BN201 (50 mg/kg) and 531-201 (5 mg/kg) in the progression of chronic EAE in mice. […]

[5] = test system: EAE in C57BL6 mice immunized with MOG35-55; experiment: Example 3: BN201 and DMF combination, progression of chronic EAE; format: in vivo, mouse; conditions: DMF 10 mg/kg oral alone (suboptimal), once a day six days per week from day 15
Experimental: Effect in the animal model of MS (i.e., EAE in C57BL6 mice immunized with MOG35-55), similar to Example 2.
Starting on day 15, mice were administered: • dimethyl fumarate (DMF) (group A, 10 mice), • BN201 (group B, 10 mice) • a combination thereof (group C, 10 mice) once a day for six days per week at suboptimal dosages (10 mg/kg for DMF, 25 mg/kg for BN201).
DMF was administered orally with a rigid cannula in a saline vehicle at a volume of 10 mL/kg, while BN201 was administered via i.p. injection in a saline vehicle at a volume of 5 mL/kg. Control mice received vehicle only via both oral and i.p. injection (group D, 10 mice) or nothing at all (group E, 2 mice).
The objective of the study was to evaluate the efficacy and safety of combination therapy with suboptimal doses of BN201 (25 mg/kg) and dimethyl-fumarate (DMF) (10 mg/kg) in the progression of chronic EAE in mice.
During a one week acclimation period starting on day −7, mice were distributed based on body weight stratification into different experimental groups. On day 0, mice were immunized subcutaneously in both hind pads with 150 μg of MOG peptide 35-55 (Spikem, Firenze) emulsified with 50 μg of Mycobacterium tuberculosis (H37Ra strain; Difco, Detroit, MI) in incomplete Freund's adjuvant (IFA). […]

[6] = test system: experimental autoimmune encephalomyelitis (EAE) mouse model; experiment: Study EAE-C05: clinical score in EAE mouse model with active comparators; format: in vivo; conditions: 2 mg/kg daily, after 5 days of treatment
Experimental: A second experiment (Study EAE-C05) was then performed using the same mouse model.
Study EAE-C05: In addition to two dose levels of BN201 and a placebo-treated group (pathological control group), the study design introduced two active comparators, dimethyl fumarate (DMF) and fingolimod (FTY720), and a sham group (group in which animals were manipulated as the pathological group but without MOG injection). All groups were administered daily. • sham control non-diseased placebo-treated animals (healthy control group); • EAE-affected placebo-treated animals (pathological control group); • EAE-affected animals treated orally with 15 mg/kg of DMF; • EAE-affected animals treated with 2 mg/kg of FTY720; • EAE-affected animals treated with BN201 at 50 or 100 mg/kg.
(§1) Clinical scores were assigned to assess disease severity using the following scale: 0=normal; 0.5=Partial tail paralysis; 1=Complete tail paralysis; 1.5=Tail paralysis and loss of righting reflex; 2=Partial hind limb paralysis/paralysis of one limb; 2.5=One limb paralysis and partial loss of activity of one other limb; 3=Bilateral hind limb paralysis; 4=Moribund; 5=exitus.
Therapeutic treatment was initiated on day 12 or 13, once each mouse started showing complete tail paralysis (Score 1).

[7] = test system: experimental autoimmune encephalomyelitis (EAE) mouse model; experiment: Study EAE-C06: dose response of BN201, clinical score in EAE mouse model; format: in vivo; conditions: 2 mg/kg daily, almost all days of observation/treatment (Day 2 to day 30)
Experimental: A third experiment (Study EAE-C06) to test dose response of BN201 was then performed using the same mouse model.
Study EAE-C06: five different concentrations of BN201: 12.5 mg/kg, 25 mg/kg, 50 mg/kg, 100 mg/kg, and 150 mg/kg. Also sham, pathological control and FTY720 (2 mg/kg) comparator groups were included in the experiment. All groups were administered daily.
as §1
Therapeutic treatment was initiated on day 12 once each mouse started showing complete tail paralysis (Score 1).
Data are depicted in FIG. 1 (C), wherein the clinical score for each of the tested groups is plotted per day after disease onset.

With `COC(=O)/C=C/C(=O)O` [fumarate, fumaric acid monomethyl ester, reference compound] the “cell viability as a percentage compared to the control (protection from death induced by oxidative stress)” value (from here on “cell viability as a percentage”) [1] was “partially rescued neurons from death induced by oxidative stress”.
For `CCCc1ccc(COc2ccc3c(c2)CCC(CN2CC(C(=O)O)C2)=C3C)c(OC)c1` [Ceralifimod, 1-[[6-[(2-methoxy-4-propylphenyl)methoxy]-1-methyl-3,4-dihydronaphthalen-2-yl]methyl]azetidine-3-carboxylic acid], the disease onset [2] is listed as “delays disease onset”, the “lymphocyte infiltration of the spinal cord” value [2] is listed as “inhibits lymphocyte infiltration of the spinal cord” and the disease relapse [3] is listed as “prevents disease relapse”.
In the case of `Cc1ccc(S(=O)(=O)OCC(=O)Nc2ccc(C(=O)O)c(O)c2)cc1` [S31-201, 2-Hydroxy-4-[[[[(4-methylphenyl)sulfonyl]oxy]acetyl]amino]-benzoic acid, reference compound], the “course of EAE in chronic phase (clinical score)” value [4] is reported as “not efficacious”.
In the case of `CC(C)CN(CC(=O)N(CCCN1CCCC1=O)CC(N)=O)C(=O)CNCCc1ccccc1F` [BN201-monomethylfumarate salt], the “cell viability as a percentage” value [1] is reported as “increased” and the “cell viability as a percentage” value ([1]; listed as BN201-monomethylfumarate) is reported as “significantly higher level of neuroprotection than either compound alone”.
With `COC(=O)/C=C/C(=O)OC` [DMF, Dimethyl fumarate, reference compound] the “course of EAE (clinical score) versus placebo” value [5] was “suffered EAE similar to those mice treated with placebo”.
With `CCCCCCCCc1ccc(CCC(N)(CO)CO)cc1` [FTY720, Fingolimod, reference compound] the “clinical score compared to pathological control group” value [6] was “significantly lower” and the clinical score [7] was “significant amelioration of the clinical score”.
